# Experimental data as given in US6903086B2, “Alkoxycarbonylamino benzoic acid or alkoxycarbonylamino tetrazolyl phenyl derivatives as IP antagonists” (SYNTEX (U.S.A.) LLC, priority 2001, dated 2005).
row,SMILES,melting point [°C]
1,"O=C(Nc1cccc(Cl)c1C(=O)O)OCc1cc2cc(-c3cncnc3)ccc2o1 [compound 37, 2-chloro-6-(5-pyrimidin-5-yl-benzofuran-2-ylmethoxycarbonylamino)-benzoic acid]",192.8 to 194.3
2,"O=C(Nc1cccc(Cl)c1C(=O)O)OCc1cc2cc(-c3ccccn3)ccc2o1 [compound 38, 2-chloro-6-(5-pyridin-2-yl-benzofuran-2-ylmethoxycarbonylamino)-benzoic acid]",134.8 to 144.1
3,"O=C(Nc1cccc(Cl)c1C(=O)O)OCc1cc2cc(-c3cnccn3)ccc2o1 [compound 39, 2-chloro-6-(5-pyrazin-2-yl-benzofuran-2-ylmethoxycarbonylamino)-benzoic acid]",212 to 214.1
4,"O=C(Nc1cccc(Cl)c1C(=O)O)OCc1cc2cc(-c3ccnnc3)ccc2o1 [compound 40, 2-chloro-6-(5-pyridazin-4-yl-benzofuran-2-ylmethoxycarbonylamino)-benzoic acid]",179 to 182.2
5,"Cc1cc(Br)ccc1NC(=O)OCc1cc2cc(-c3cccnc3)ccc2o1 [compound 41, (4-bromo-2-methyl-phenyl)-carbamic acid 5-pyridin-3-yl-benzofuran-2-ylmethyl ester]",213.9 to 214.5
6,"O=C(Nc1cccc(Br)c1C(=O)O)OCc1cc2cc(-c3ccc(F)cc3)ccc2o1 [compound 42, 2-bromo-6-[5-(4-fluoro-phenyl)-benzofuran-2-ylmethoxycarbonylamino]-benzoic acid]",170.6 to 172
7,"O=C(O)Cc1ccccc1NC(=O)OCc1cc2cc(-c3ccccc3)ccc2o1 [compound 42, [2-(5-phenyl-benzofuran-2-ylmethoxycarbonylamino)-phenyl]-acetic acid]",169.5 to 170.9
8,"O=C(Nc1ccc2ccccc2c1C(=O)O)OCc1cc2cc(-c3ccccc3)ccc2o1 [compound 201, 2-(5-phenyl-benzofuran-2-ylmethoxycarbonylamino)-naphthalene-1-carboxylic acid]",174.5 to 177.2
9,"O=C(Nc1ccc2ccccc2c1C(=O)O)OCc1cc2cc(-c3ccc(F)cc3)ccc2o1 [compound 202, 2-[5-(4-fluoro-phenyl)-benzofuran-2-ylmethoxycarbonylamino]-naphthalene-1-carboxylic acid]",204.5 to 205
10,"CC(C)Oc1ccc(NC(=O)OCc2cc3cc(-c4ccc(F)cc4)ccc3o2)c(C(=O)O)c1 [compound 301, 2-[5-(4-fluoro-phenyl)-benzofuran-2-ylmethoxycarbonylamino]-5-isopropoxy-benzoic acid]",195 to 196.5
11,"O=C(Nc1cc(C(=O)O)cc(-c2ccccc2)c1)OCc1cc2cc(-c3ccccc3)ccc2o1 [compound 401, 5-(5-phenyl-benzofuran-2-ylmethoxycarbonylamino)-biphenyl-3-carboxylic acid]",235.7 to 238.9
12,O=C(Nc1ccc(-c2ccccc2)cc1-c1nnn[nH]1)OCc1cc2cc(-c3ccccc3)ccc2o1 [compound 501],180 to 183
13,"O=C(Nc1ccc(-c2ccccc2)cc1-c1nnn[nH]1)OCc1cc2cc(-c3cc(Cl)cc(Cl)c3)ccc2o1 [compound 502, [3-(1H-tetrazol-5-yl)-biphenyl-4-yl]-carbamic acid 5-(3,5-dichloro-phenyl)-benzofuran-2-ylmethyl ester]",127.5 to 134
14,"O=C(Nc1ccccc1-c1nnn[nH]1)OCc1cc2cc(-c3ccc(F)cc3)ccc2o1 [compound 503, [2-(1H-tetrazol-5-yl)-phenyl]-carbamic acid 5-(4-fluoro-phenyl)-benzofuran-2-ylmethyl ester]",155 to 158
15,"O=C(Nc1ccc(Br)cc1-c1nnn[nH]1)OCc1cc2cc(-c3ccc(F)cc3)ccc2o1 [compound 504, [4-bromo-2-(1H-tetrazol-5-yl)-phenyl]-carbamic acid 5-(4-fluoro-phenyl)-benzofuran-2-ylmethyl ester]",121 to 138
16,"O=C(Nc1ccc(-c2ccc(F)cc2)cc1-c1nnn[nH]1)OCc1cc2cc(-c3ccc(F)cc3)ccc2o1 [compound 505, [4′-fluoro-3-(1H-tetrazol-5-yl)-biphenyl-4-yl]-carbamic acid 5-(4-fluoro-phenyl)-benzofuran-2-ylmethyl ester]",209 to 211
17,"O=C(Nc1ccc(F)cc1-c1nnn[nH]1)OCc1cc2cc(-c3ccc(F)cc3)ccc2o1 [compound 506, [4-fluoro-2-(1H-tetrazol-5-yl)-phenyl]-carbamic acid 5-(4-fluoro-phenyl)-benzofuran-2-ylmethyl ester]",121 to 125.2
18,"O=C(Nc1ccc(Br)cc1-c1nnn[nH]1)OCc1cc2cc(-c3ccccc3)ccc2o1 [compound 507, [4-bromo-2-(1H-tetrazol-5-yl)-phenyl]-carbamic acid 5-phenyl-benzofuran-2-ylmethyl ester]",166 to 190
19,"O=C(Nc1ccccc1-c1nnn[nH]1)OCc1cc2cc(-c3ccccc3)ccc2o1 [compound 508, [2-(1H-tetrazol-5-yl)-phenyl]-carbamic acid 5-phenyl-benzofuran-2-ylmethyl ester]",213 to 216.5
20,"O=C(Nc1ccc(-c2ccccc2)cc1-c1nnn[nH]1)OCc1cc2cc(-c3ccc(F)cc3)ccc2o1 [compound 509, [3-(1H-tetrazol-5-yl)-biphenyl-4-yl]-carbamic acid 5-(4-fluoro-phenyl)-benzofuran-2-ylmethyl ester]",192 to 230
21,"O=C(Nc1ccc(-c2ccccc2)cc1C(=O)O)OCc1ccc(-c2ccccc2)cc1 [compound 601, 4-(biphenyl-4-ylmethoxycarbonylamino)-biphenyl-3-carboxylic acid]",234.5 to 235.6
22,"Nc1cccc(NC(=O)OCc2cc3cc(-c4ccc(F)cc4)ccc3o2)c1C(=O)O [compound 701, 2-amino-6-[5-(4-fluorophenyl)benzofuran-2-ylmethoxycarbonylamino]benzoic acid]",176.4 to 178.5
23,"O=C(Nc1cccc(Cl)c1C(=O)O)OCCOc1ccc(-c2ccccc2)cc1 [compound 801, 2-[2-(biphenyl-4-yloxy)-ethoxycarbonylamino]-6-chloro-benzoic acid]",157.5 to 158.9
24,"Cc1ccc(NC(=O)OCCOc2ccc(-c3ccccc3)cc2)c(C(=O)O)c1 [compound 802, 2-[2-(biphenyl-4-yloxy)-ethoxycarbonylamino]-5-methyl-benzoic acid]",175.5 to 177.8
